This is an account of results in patent US20120220562A1, “Anti-Viral Compounds” (ABBOTT LABAORATORIES, priority 2011, published 2012).

Where only a bound is given, the exact number is not on record here.

The test system of the assay is HCV 1b-Con1 replicon. The assay can be described thus: HCV 1b-Con1 replicon assay in the presence of 5% FBS. It is filed as cell-based. The conditions noted are these: Hepatitis C virus.
With `COC(=O)NC(C(=O)N1CCC[C@H]1c1nc2cc([C@@H]3CC[C@@H](c4ccc5[nH]c([C@@H]6CCCN6C(=O)C(NC(=O)OC)=C(C)C)nc5c4)N3c3ccc(C(C)(C)C)cc3)ccc2[nH]1)=C(C)C` [Example 3.17, dimethyl {[(2S,5S)-1-(4-tert-butylphenyl)pyrrolidine-2,5-diyl]bis[1H-benzimidazole-5,2-diyl(2S)pyrrolidine-2,1-diyl(3-methyl-1-oxobut-2-ene-1,2-diyl)]}biscarbamate], the EC50 was less than 0.1 nM.

Consider `COC(=O)N[C@H](C(=O)N1CCC[C@H]1c1nc2cc([C@H]3CC[C@H](c4ccc5[nH]c([C@@H]6CCCN6C(=O)[C@@H](NC(=O)OC)C(C)C)nc5c4)N3c3ccc(Oc4ccccc4)cc3)ccc2[nH]1)C(C)C` [Example 1.1, methyl {(2S)-1-[(2S)-2-{5-[(2R,5R)-5-{2-[(2S)-1-{(2S)-2-[(methoxycarbonyl)amino]-3-methylbutanoyl}pyrrolidin-2-yl]-1H-benzimidazol-5-yl}-1-(4-phenoxyphenyl)pyrrolidin-2-yl]-1H-benzimidazol-2-yl}pyrrolidin-1-yl]-3-methyl-1-oxobutan-2-yl}carbamate], for which the EC50 is less than 0.1 nM. `COC(=O)N[C@H](C(=O)N1CCC[C@H]1c1ncc(-c2cccc(C3(c4cccc(-c5cnc([C@@H]6CCCN6C(=O)[C@@H](NC(=O)OC)C(C)C)[nH]5)c4)CN(c4ccc(C(C)(C)C)cc4)C3)c2)[nH]1)C(C)C` [Example 12.1, methyl {(2S)-1-[(2S)-2-(5-{3-[1-(4-tert-butylphenyl)-3-(3-{2-[(2S)-1-{(2S)-2-[(methoxycarbonyl)amino]-3-methylbutanoyl}pyrrolidin-2-yl]-1H-imidazol-5-yl}phenyl)azetidin-3-yl]phenyl}-1H-imidazol-2-yl)pyrrolidin-1-yl]-3-methyl-1-oxobutan-2-yl}carbamate]: the EC50 is 1 to 10 nM. In the case of `COC(=O)N[C@H](C(=O)N1CCC[C@H]1c1nc2ccc([C@H]3CC[C@H](c4ccc5nc([C@@H]6CCCN6C(=O)[C@@H](NC(=O)OC)C(C)C)[nH]c5c4)N3c3cc(F)c(N4CCC(c5cccc6ccccc56)CC4)c(F)c3)cc2[nH]1)C(C)C` [Example 2.15, methyl {(2S)-1-[(2S)-2-{5-[(2R,5R)-1-{3,5-difluoro-4-[4-(1-naphthyl)piperidin-1-yl]phenyl}-5-{2-[(2S)-1-{(2S)-2-[(methoxycarbonyl)amino]-3-methylbutanoyl}pyrrolidin-2-yl]-1H-benzimidazol-5-yl}pyrrolidin-2-yl]-1H-benzimidazol-2-yl}pyrrolidin-1-yl]-3-methyl-1-oxobutan-2-yl}carbamate], the EC50 was less than 0.1 nM. As for `COC(=O)N[C@H](C(=O)N1CCC[C@H]1c1nc2cc(F)c([C@H]3CC[C@H](c4cc5[nH]c([C@@H]6CCCN6C(=O)[C@@H](NC(=O)OC)C6CCCC6)nc5cc4F)N3c3cc(F)c(N4CCN(c5ccc(C(F)(F)F)cc5)CC4)c(F)c3)cc2[nH]1)C1CCCC1` [Example 4.45, dimethyl ([(2R,5R)-1-(3,5-difluoro-4-{4-[4-(trifluoromethyl)phenyl]piperazin-1-yl}phenyl)pyrrolidine-2,5-diyl]bis{(5-fluoro-1H-benzimidazole-6,2-diyl)(2S)pyrrolidine-2,1-diyl[(1S)-1-cyclopentyl-2-oxoethane-2,1-diyl]})bis carbamate], the figure is less than 0.1 nM. As for `COC(=O)N[C@H](C(=O)N1CCC[C@H]1c1nc2cc([C@H]3CC[C@H](c4ccc5[nH]c([C@@H]6CCCN6C(=O)[C@@H](NC(=O)OC)C(C)C)nc5c4)N3c3cc(F)c(N4CCC(c5ccccc5)(c5ccccc5)CC4)c(F)c3)ccc2[nH]1)C(C)C` [Example 5.2, methyl {(2S)-1-[(2S)-2-{5-[(2R,5R)-1-[4-(4,4-diphenylpiperidin-1-yl)-3,5-difluorophenyl]-5-{2-[(2S)-1-{(2S)-2-[(methoxycarbonyl)amino]-3-methylbutanoyl}pyrrolidin-2-yl]-1H-benzimidazol-5-yl}pyrrolidin-2-yl]-1H-benzimidazol-2-yl}pyrrolidin-1-yl]-3-methyl-1-oxobutan-2-yl}carbamate], the EC50 is less than 0.1 nM.

As to `COC(=O)N[C@H](C(=O)N1CCC[C@H]1c1nc2cc([C@H]3CC[C@@H](c4cc5nc([C@@H]6CCCN6C(=O)[C@@H](NC(=O)OC)C(C)C)[nH]c5cc4F)N3c3cnc(N4CCC(c5ccccc5)CC4)nc3)c(F)cc2[nH]1)C(C)C` [Example 3.46, methyl {(2S)-1-[(2S)-2-(6-fluoro-5-{(2R,5S)-5-{6-fluoro-2-[(2S)-1-{(2S)-2-[(methoxycarbonyl)amino]-3-methylbutanoyl}pyrrolidin-2-yl]-1H-benzimidazol-5-yl}-1-[2-(4-phenylpiperidin-1-yl)pyrimidin-5-yl]pyrrolidin-2-yl}-1H-benzimidazol-2-yl)pyrrolidin-1-yl]-3-methyl-1-oxobutan-2-yl}carbamate], the EC50 was less than 0.1 nM.

In the case of `COC(=O)N[C@H](C(=O)N1CCC[C@H]1c1nc2cc([C@H]3CC[C@H](c4cc5nc([C@@H]6CCCN6C(=O)[C@@H](NC(=O)OC)C6CCCC6)[nH]c5cc4F)N3c3cc(F)c(N4CCC(C(C)(C)C)CC4)c(F)c3)c(F)cc2[nH]1)C1CCCC1` [Example 4.28, dimethyl ({(2R,5R)-1-[4-(4-tert-butylpiperidin-1-yl)-3,5-difluorophenyl]pyrrolidine-2,5-diyl}bis{(6-fluoro-1H-benzimidazole-5,2-diyl)(2S)pyrrolidine-2,1-diyl[(1S)-1-cyclopentyl-2-oxoethane-2,1-diyl]})biscarbamate], the EC50 was less than 0.1 nM. Regarding `COC(=O)N[C@H](C(=O)N1CCC[C@H]1c1nc2ccc([C@H]3CC[C@H](c4ccc5nc([C@@H]6CCCN6C(=O)[C@@H](NC(=O)OC)C(C)C)[nH]c5c4)N3c3c(F)c(F)c(N4CCCCC4)c(F)c3F)cc2[nH]1)C(C)C` [Example 2.6, methyl {(2S)-1-[(2S)-2-(6-{(2R,5R)-5-{2-[(2S)-1-{(2S)-2-[(methoxycarbonyl)amino]-3-methylbutanoyl}pyrrolidin-2-yl]-1H-benzimidazol-6-yl}-1-[2,3,5,6-tetrafluoro-4-(piperidin-1-yl)phenyl]pyrrolidin-2-yl}-1H-benzimidazol-2-yl)pyrrolidin-1-yl]-3-methyl-1-oxobutan-2-yl}carbamate], the EC50 was less than 0.1 nM.

On to `COC(=O)N[C@H](C(=O)N1CCC[C@H]1c1nc(-c2ccc(-c3ccn(-c4ccc(-c5c[nH]c([C@@H]6CCCN6C(=O)[C@@H](NC(=O)OC)C(C)C)n5)cc4)c3-c3ccc(C(C)(C)C)cc3)cc2)c[nH]1)C(C)C` [Example 7.1, methyl {(2S)-1-[(2S)-2-(4-{4-[2-(4-tert-butylphenyl)-1-(4-{2-[(2S)-1-{(2S)-2-[(methoxycarbonyl)amino]-3-methylbutanoyl}pyrrolidin-2-yl]-1H-imidazol-4-yl}phenyl)-1H-pyrrol-3-yl]phenyl}-1H-imidazol-2-yl)pyrrolidin-1-yl]-3-methyl-1-oxobutan-2-yl}carbamate], for which the EC50 is less than 0.1 nM. For `COC(=O)N[C@H](C(=O)N1CCC[C@H]1c1nc2cc([C@H]3CC[C@H](c4cc5nc([C@@H]6CCCN6C(=O)[C@@H](NC(=O)OC)[C@@H](C)OC)[nH]c5cc4F)N3c3cc(F)c(N4CCC(c5ccc(F)cc5)CC4)c(F)c3)c(F)cc2[nH]1)[C@@H](C)OC` [Example 3.52, methyl {(2S,3R)-1-[(2S)-2-{5-[(2R,5R)-1-{3,5-difluoro-4-[4-(4-fluorophenyl)piperidin-1-yl]phenyl}-5-(6-fluoro-2-{(2S)-1-[N-(methoxycarbonyl)-O-methyl-L-threonyl]pyrrolidin-2-yl}-1H-benzimidazol-5-yl)pyrrolidin-2-yl]-6-fluoro-1H-benzimidazol-2-yl}pyrrolidin-1-yl]-3-methoxy-1-oxobutan-2-yl}carbamate], the EC50 is less than 0.1 nM. With `COC(=O)N[C@H](C(=O)N1CCC[C@H]1c1nc2cc([C@H]3CC[C@H](c4cc5nc([C@@H]6CCCN6C(=O)[C@@H](NC(=O)OC)C(C)C)[nH]c5cc4F)N3c3cc(F)c(N4CCC(c5ccc6ccccc6c5)CC4)c(F)c3)c(F)cc2[nH]1)C(C)C` [Example 4.30, methyl {(2S)-1-[(2S)-2-{5-[(2R,5R)-1-{3,5-difluoro-4-[4-(2-naphthyl)piperidin-1-yl]phenyl}-5-{6-fluoro-2-[(2S)-1-{(2S)-2-[(methoxycarbonyl)amino]-3-methylbutanoyl}pyrrolidin-2-yl]-1H-benzimidazol-5-yl}pyrrolidin-2-yl]-6-fluoro-1H-benzimidazol-2-yl}pyrrolidin-1-yl]-3-methyl-1-oxobutan-2-yl}carbamate], the EC50 was less than 0.1 nM. For `COC(=O)N[C@H](C(=O)N1CCC[C@H]1c1nc2ccc([C@H]3CC[C@H](c4ccc5nc([C@@H]6CCCN6C(=O)[C@@H](NC(=O)OC)C(C)C)[nH]c5c4)N3c3cc(F)c(C4CC4)c(F)c3)cc2[nH]1)C(C)C` [Example 4.15, methyl {(2S)-1-[(2S)-2-{6-[(2R,5R)-1-(4-cyclopropyl-3,5-difluorophenyl)-5-{2-[(2S)-1-{(2S)-2-[(methoxycarbonyl)amino]-3-methylbutanoyl}pyrrolidin-2-yl]-1H-benzimidazol-6-yl}pyrrolidin-2-yl]-1H-benzimidazol-2-yl}pyrrolidin-1-yl]-3-methyl-1-oxobutan-2-yl}carbamate], the EC50 is less than 0.1 nM.

In the case of `COC(=O)N[C@H](C(=O)N1[C@H](c2nc3cc([C@H]4CC[C@H](c5cc6nc([C@@H]7C[C@@H]8CCC[C@@H]8N7C(=O)[C@@H](NC(=O)OC)[C@@H](C)OC)[nH]c6cc5F)N4c4cc(F)c(N5CCCCC5)c(F)c4)c(F)cc3[nH]2)C[C@@H]2CCC[C@@H]21)[C@@H](C)OC` [Example 3.38, methyl {(2S,3R)-1-[(2S,3aS,6aS)-2-{5-[(2R,5R)-1-[3,5-difluoro-4-(piperidin-1-yl)phenyl]-5-(6-fluoro-2-{(2S,3aS,6aS)-1-[N-(methoxycarbonyl)-O-methyl-L-threonyl]octahydrocyclopenta[b]pyrrol-2-yl}-1H-benzimidazol-5-yl)pyrrolidin-2-yl]-6-fluoro-1H-benzimidazol-2-yl}hexahydrocyclopenta[b]pyrrol-1(2H)-yl]-3-methoxy-1-oxobutan-2-yl}carbamate], the EC50 is less than 0.1 nM.
